From US20150258197A1, “EUTECTIC ISOMETHEPTENE MUCATE” (TONIX PHARMA HOLDINGS LIMITED, priority 2014, published 2015)

What was measured:
[1] = cited from earlier work
[2] = system: imidazoline-1 (I1) receptor; details: cited from earlier work
mice [3] = test: Hot Plate Test; type: in vivo; details: mouse, hot plate 54° C., 10, 30 and 100 mg/kg p.o. 15 minutes before the test
Description: (§1) Common mouse models for pain include the Formalin Test (Wheeler-Aceto, et al., Psychopharmacology, 104, 35-44, 1991), the Hot Plate Test (Eddy and Leimbach, J. Pharmacol. Exp. Ther., 107, 385-393, 1953), and the Tail-flick Test (D'Amour and Smith, J. Pharmacol. Exp. Ther., 1, 74-79, 1941). These methods detect analgesic activity of compositions of interest. In the Formalin Test, mice are given an intraplantar injection of 5% formalin into one posterior hindpaw to induce paw licking. Test compositions are given to the mice before treatment with formalin and the mice are evaluated and compared to a control group. In the Hot Plate Test, mice are placed onto a hot metal plate maintained at 54° C. and the latency to the first foot-lick is measured. As with the Formalin test, compositions of interest are given to the mice before the test and the mice are evaluated and compared to a control group. In the Tail-flick Test, a mouse's tail is heated by means of a thermal light source, and the latency before the animal withdraws its tail is measured. […]
Mice were placed onto a hot metal plate maintained at 54° C. surrounded by a Plexiglas cylinder (height: 13 cm; diameter: 19 cm). The latency to the first foot-lick was measured (maximum: 30 seconds). […]
Data with the test substance were analyzed by comparing treated groups with vehicle control using ANOVA followed by post-hoc Dunnett's tests. […]

mice [4] = test: Formalin Test, late phase (licking score); type: in vivo; details: mouse, 5% formalin intraplantar, three doses p.o. 15 minutes before the test, 15-50 min after formalin
Description: as §1
Mice were given an intraplantar injection of 5% formalin (25 μL) into one posterior hindpaw. […] Mice were briefly observed at one minute intervals between 15 and 50 minutes after the injection of formalin and the number of occasions that the mice were observed licking the injected paw was recorded. […]

mice [5] = test: Tail-flick Test; type: in vivo; details: mouse, thermal light source, three doses (10, 30, 100) p.o. 15 minutes before the test
Description: Common mouse models for pain include the Formalin Test (Wheeler-Aceto, et al., Psychopharmacology, 104, 35-44, 1991), the Hot Plate Test (Eddy and Leimbach, J. Pharmacol. Exp. Ther., 107, 385-393, 1953), and the Tail-flick Test (D'Amour and Smith, J. Pharmacol. Exp. Ther., 1, 74-79, 1941). These methods detect analgesic activity of compositions of interest. In the Formalin Test, mice are given an intraplantar injection of 5% formalin into one posterior hindpaw to induce paw licking. Test compositions are given to the mice before treatment with formalin and the mice are evaluated and compared to a control group. In the Hot Plate Test, mice are placed onto a hot metal plate maintained at 54° C. and the latency to the first foot-lick is measured. As with the Formalin test, compositions of interest are given to the mice before the test and the mice are evaluated and compared to a control group. In the Tail-flick Test, a mouse's tail is heated by means of a thermal light source, and the latency before the animal withdraws its tail is measured. Test compositions are administered before the test, and compared with a vehicle control group. The analgesic activity of the compositions described herein can be identified using the mouse formalin, hot plate, and tail-flick tests.
A method for detecting analgesic activity followed that described by D'Amour and Smith (J. Pharmacol. Exp. Ther., 1, 74-79, 1941). The mouse's tail was heated by means of a thermal light source (20 volts). The latency before the animal withdraws its tail was measured (maximum: 15 seconds).
Ten mice were studied per group. The test was performed partially blind.
The test substances selected from (R)-isometheptene mucate, and (S)-isometheptene mucate were evaluated at three doses ([…]), administered p.o. 15 minutes before the test, and compared with a vehicle control group. […]
Data with the test substance were analyzed by comparing treated groups with vehicle control using ANOVA followed by post-hoc Dunnett's tests. Data with the reference substance were analyzed using unpaired Student's t tests.

[6] = compared with (S)-isometheptene

For `CNC(C)CCC=C(C)C` (racemic) [Racemic isometheptene, reference compound], the “Heart rate and diastolic blood pressure” value ([1]; in vivo) is given as “increase”.
For `CN[C@H](C)CCC=C(C)C` [(R)-isometheptene], the “Binding affinity for the imidazoline-1 (I1) receptor” value [2] is listed as “significant binding affinity”, the “I1 affinity relative to (S)-isometheptene” value [2, 6] is listed as “higher affinity” and the “Potential adverse effects to the cardiovascular system relative to (S)-isometheptene” value [1, 6] is listed as “lower potential adverse effects”.
For `CN[C@@H](C)CCC=C(C)C` [(S)-isometheptene mucate], the “Foot-licking latency compared to vehicle” value (mice [3]) was “longer foot-licking latency times”, the “Licking score compared to vehicle” value (mice [4]) was “reduction in licking score” and the “Tail flick latency compared to vehicle” value (mice [5]) was “longer tail flick latency times”.
